Experiments:
[1] = target: human immunoproteasome (LMP7) (Homo sapiens (Human), UniProt P28062); test: Determination of LMP7 activity (fluorescence intensity assay, Suc-LLVY-AMC); format: biochemical; details: for Selectivity LMP7 vs Beta5: LMP7 versus Beta5; for IC50: purified human immunoproteasome 0.25 nM, Suc-LLVY-AMC 40 μM
In short: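 0.25 nM purified human immunoproteasome preincubated 20 min at 25 °C with serially diluted compounds in 50 mM Tris pH 7.4, 0.03% SDS, 1 mM EDTA, 1% DMSO. Reaction started with 40 μM Suc-LLVY-AMC, run 60 min at 37 °C. Fluorescence read at ex 350/em 450 nm.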

[2] = target: human constitutive proteasome (Beta5) (Homo sapiens (Human), UniProt P28074); test: Determination of Beta5 activity (fluorescence intensity assay, Suc-LLVY-AMC); format: biochemical; details: purified human constitutive proteasome 1.25 nM, Suc-LLVY-AMC 40 μM
In short: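 Purified constitutive proteasome (1.25 nM) was preincubated with compounds 20 min at 25 °C in 50 mM Tris pH 7.4, 0.03% SDS, 1 mM EDTA, 1% DMSO. Suc-LLVY-AMC (40 μM) was then added for 60 min at 37 °C. AMC fluorescence was read at ex 350/em 450 nm.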

| Selectivity LMP7 vs Beta5 [1] | IC50 [1] [nM] | IC50 [2] [nM] | Structure (SMILES) |
| --- | --- | --- | --- |
| +++++ (Selectivity ≥ 100) | < 50 | 500 to 5000 | Cc1cccc2c1OCC2C[C@H](NC(=O)Cc1ccccc1)B(O)O (stereo partly drawn) [Compound No. 77, [(1R)-2-(7-methyl-2,3-dihydrobenzofuran-3-yl)-1-[(2-phenylacetyl)-amino]ethyl]boronic acid] |
| +++++ (Selectivity ≥ 100) | < 50 | 500 to 5000 | COc1ccc(OC)c(CC(=O)N[C@@H](Cc2coc3c(C)cccc23)B(O)O)c1 [Compound No. 78, [(1R)-1-[[2-(2,5-dimethoxyphenyl)acetyl]amino]-2-(7-methylbenzofuran-3-yl)ethyl]boronic acid] |
| +++++ (Selectivity ≥ 100) | < 50 | 500 to 5000 | Cc1cccc2c(C[C@H](NC(=O)[C@H](CO)c3ccccc3)B(O)O)coc12 [Compound No. 79, [(1R)-1-[[(2S)-3-hydroxy-2-phenyl-propanoyl]amino]-2-(7-methylbenzofuran-3-yl)ethyl]boronic acid] |
| +++++ (Selectivity ≥ 100) | 50 to 500 | > 5000 | Cc1cccc2c(C[C@@H](NC(=O)[C@H](CO)c3ccccc3)B(O)O)coc12 [Compound No. 80, [(1S)-1-[[(2S)-3-hydroxy-2-phenyl-propanoyl]amino]-2-(7-methylbenzofuran-3-yl)ethyl]boronic acid] |
| +++++ (Selectivity ≥ 100) | 50 to 500 | > 5000 | COc1ccc(CC(=O)N[C@H](Cc2coc3c(C)cccc23)B(O)O)cc1 [Compound No. 81, [(1S)-1-[[2-(4-methoxyphenyl)acetyl]amino]-2-(7-methylbenzofuran-3-yl)ethyl]boronic acid] |
| +++++ (Selectivity ≥ 100) | < 50 | 500 to 5000 | COc1ccc(CC(=O)N[C@@H](Cc2coc3c(C)cccc23)B(O)O)cc1 [Compound No. 82, [(1R)-1-[[2-(4-methoxyphenyl)acetyl]amino]-2-(7-methylbenzofuran-3-yl)ethyl]boronic acid] |
| +++++ (Selectivity ≥ 100) | < 50 | 500 to 5000 | Cc1cccc2c(C[C@H](NC(=O)[C@@H](CO)c3ccccc3)B(O)O)coc12 [Compound No. 83, [(1R)-1-[[(2R)-3-hydroxy-2-phenyl-propanoyl]amino]-2-(7-methylbenzofuran-3-yl)ethyl]boronic acid] |
| ++ (10 ≤ Selectivity < 50) | 500 to 5000 | > 5000 | Cc1cccc2c(C[C@@H](NC(=O)[C@@H](CO)c3ccccc3)B(O)O)coc12 [Compound No. 84, [(1S)-1-[[(2R)-3-hydroxy-2-phenyl-propanoyl]amino]-2-(7-methylbenzofuran-3-yl)ethyl]boronic acid] |
| +++++ (Selectivity ≥ 100) | < 50 | 500 to 5000 | O=C(Cc1ccccc1)N[C@@H](Cc1coc2c(Cl)cccc12)B(O)O [Compound No. 85, [(1R)-2-(7-chlorobenzofuran-3-yl)-1-[(2-phenylacetyl)amino]ethyl]-boronic acid] |
| +++++ (Selectivity ≥ 100) | < 50 | > 5000 | COc1ccc(CCC(=O)N[C@@H](CC2COc3c(C)cccc32)B(O)O)nc1 (stereo partly drawn) [Compound No. 86, [(1R)-1-[3-(5-methoxy-2-pyridyl)propanoylamino]-2-(7-methyl-2,3-dihydrobenzofuran-3-yl)ethyl]boronic acid] |
| + (Selectivity < 10) | 500 to 5000 | > 5000 | COc1ccc(CCC(=O)N[C@H](CC2COc3c(C)cccc32)B(O)O)nc1 (stereo partly drawn) [Compound No. 87, [(1S)-1-[3-(5-methoxy-2-pyridyl)propanoylamino]-2-(7-methyl-2,3-dihydrobenzofuran-3-yl)ethyl]boronic acid] |

From patent publication US10294246B2, “Substituted boronic acids and boronate esters as immunoproteasome inhibitors” (MERCK PATENT GMBH, priority 2014, dated 2019)
